Measurements: PubChem BioAssay AID2060352 (Molecular Pharmacology Branch, DTP, NCI, 2025)

Tested on: 616215-338-R-J1-PDC spheroid with HUVEC/MSC, viability
Assay: Anticancer human tumor 616215-338-R-J1-PDC patient-derived colon adenocarcinoma cell line growth inhibition [TAK]
Settings: for IC50: curve of first compound; for viability, T/C: stronger effect = lower value
Method in brief: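 Tumor cells were grown as spheroids with HUVEC and hMSC (60:25:15) and treated with targeted agents combined with TAK-243 or ipatasertib. Drugs were tested in half-log steps down from near the clinical Cmax, or from 10 microM where Cmax was unknown.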
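Further: spheroids exposed to drugs for 7 days before readout.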

CC(C)CC(NC(=O)CNC(=O)c1cc(Cl)ccc1Cl)B1OC(=O)CC(CC(=O)O)(C(=O)O)O1 (stereo not given) + CC(C)NCC(C(=O)N1CCN(c2ncnc3c2C(C)CC3O)CC1)c1ccc(Cl)cc1 showed an IC50 (second compound 0.3 µM) of 21 nM, an IC50 (second compound 0.949 µM) of 20.7 nM and an IC50 (second compound 3 µM) of 14.2 nM. The IC50 (second compound 9.49 µM) was under 0.316 nM, the IC50 (second compound 30 µM) was under 0.316 nM and the viability, T/C (second compound 0.3 µM, first compound 0.000316 µM) was 115%. It also gave a viability, T/C (second compound 0.3 µM, first compound 0.001 µM) of 123%, a viability, T/C (second compound 0.3 µM, first compound 0.00316 µM) of 122% and a viability, T/C (second compound 0.3 µM, first compound 0.01 µM) of 105%. For the same compound, the viability, T/C (second compound 0.3 µM, first compound 0.0316 µM) was 19.7%, the viability, T/C (second compound 0.3 µM, first compound 0.1 µM) was 0.11% and the viability, T/C (second compound 0.949 µM, first compound 0.000316 µM) was 134%. The viability, T/C (second compound 0.949 µM, first compound 0.001 µM) was 136%, the viability, T/C (second compound 0.949 µM, first compound 0.00316 µM) was 132% and the viability, T/C (second compound 0.949 µM, first compound 0.01 µM) was 129%. It also gave a viability, T/C (second compound 0.949 µM, first compound 0.0316 µM) of 4.16%, a viability, T/C (second compound 0.949 µM, first compound 0.1 µM) of 0.13% and a viability, T/C (second compound 3 µM, first compound 0.000316 µM) of 78.8%. For the same compound, the viability, T/C (second compound 3 µM, first compound 0.001 µM) was 68.6%, the viability, T/C (second compound 3 µM, first compound 0.00316 µM) was 57.7% and the viability, T/C (second compound 3 µM, first compound 0.01 µM) was 76.5%. For the same compound, the viability, T/C (second compound 3 µM, first compound 0.0316 µM) was 3.6%, the viability, T/C (second compound 3 µM, first compound 0.1 µM) was 0.77% and the viability, T/C (second compound 9.49 µM, first compound 0.000316 µM) was 23.4%. The viability, T/C (second compound 9.49 µM, first compound 0.001 µM) was 21.8%, the viability, T/C (second compound 9.49 µM, first compound 0.00316 µM) was 23.6% and the viability, T/C (second compound 9.49 µM, first compound 0.01 µM) was 23.7%. It also gave a viability, T/C (second compound 9.49 µM, first compound 0.0316 µM) of 1.97%, a viability, T/C (second compound 9.49 µM, first compound 0.1 µM) of 0.97% and a viability, T/C (second compound 30 µM, first compound 0.000316 µM) of 11.2%. The viability, T/C (second compound 30 µM, first compound 0.001 µM) was 9.33%, the viability, T/C (second compound 30 µM, first compound 0.00316 µM) was 10.7% and the viability, T/C (second compound 30 µM, first compound 0.01 µM) was 8.93%. For the same compound, the viability, T/C (second compound 30 µM, first compound 0.0316 µM) was 2.11% and the viability, T/C (second compound 30 µM, first compound 0.1 µM) was 0.25%.
